{
  "source": "paper PMC7290078",
  "about": "“Agonist bias and agonist‐dependent antagonism at corticotrophin releasing factor receptors” (Pharmacology Research & Perspectives, 2020)",
  "type_in_all_cases": "cell-based",
  "key": {"CRF1 receptor (hCRF1α) [1]": {"molecular_target": "T1, CRF1 receptor (hCRF1α) (Homo sapiens, UniProt P34998)", "T1 construct": "host or cells: Cos7 cells, transient transfection (PEI), pcDNA3.0/3.1 vector", "T1 sequence (P34998 24-415)": "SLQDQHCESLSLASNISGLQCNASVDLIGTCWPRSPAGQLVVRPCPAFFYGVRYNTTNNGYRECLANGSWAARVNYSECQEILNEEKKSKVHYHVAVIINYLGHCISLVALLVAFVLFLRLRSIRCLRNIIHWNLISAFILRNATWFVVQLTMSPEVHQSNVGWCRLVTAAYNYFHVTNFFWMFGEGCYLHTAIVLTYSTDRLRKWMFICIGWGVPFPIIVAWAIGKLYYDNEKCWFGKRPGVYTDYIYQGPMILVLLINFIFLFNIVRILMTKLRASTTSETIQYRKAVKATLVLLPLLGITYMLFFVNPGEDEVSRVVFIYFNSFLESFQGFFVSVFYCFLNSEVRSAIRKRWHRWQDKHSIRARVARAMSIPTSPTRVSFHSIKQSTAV", "test": "Antagonism of agonist-mediated cAMP accumulation in Cos7 cells expressing CRF1 receptors", "settings": "for allosteric effect α / effect on agonist efficacy β: CRF1, operational model of allosterism; for antagonist potency (pKB): hCRF1α, global Schild analysis, mean ± SEM"}, "CRF1 receptor (hCRF1α) [2]": {"molecular_target": "T1, CRF1 receptor (hCRF1α)", "test": "Antagonism of agonist-mediated IP1 accumulation in Cos7 cells expressing CRF1 receptors", "settings": "for effect on agonist efficacy β: could not be determined, assumed; for allosteric effect α: operational model of allosterism; for antagonist potency (pKB): Gaddum method for insurmountable antagonism, mean ± SEM, n = 5", "source_text": "(§1) Plasmids containing hCRF1α and hCRF2α (GenBank accession numbers AY457172 and AY449734) were obtained from the cDNA Resource Centre (Bloomsburg University) and are referred to as CRF1 and CRF2 in this manuscript. Hemagglutinin (HA) epitope‐tagged human Calcitonin (CT) receptor (CT(a) splice variant) and myc‐tagged human RAMP1 were used as described previously. ^27 HA‐tagged human calcitonin receptor‐like receptor (CLR), N‐terminal FLAG‐tagged human RAMP3 and N‐terminal myc‐tagged human RAMP3 were a gift from Professor David Poyner (Aston University) and Professor Patrick Sexton (Monash University), respectively. N‐terminal FLAG‐tagged human RAMP2 was used as described previously. ^28 All receptors and RAMPs were cloned in pcDNA3.0 or pcDNA3.1 plasmid vectors. All plasmid inserts were sequenced at the Centre for Genomics, Proteomics and Metabolomics (University of Auckland) and the sequences were verified prior to use.\nCos7, HEK‐293S, and HEK‐293T cells were cultured as described previously. ^28 , ^29 Cos7 cells were originally supplied by the ATCC to Associate Professor Nigel Birch (University of Auckland). HEK‐293S cells were a gift from Professor David Poyner (Aston University) and HEK‐293T cells a gift from Professor John Taylor (University of Auckland). Briefly, all cell lines were cultured in Dulbecco's Modified Eagle Medium (DMEM) supplemented with 8% heat inactivated fetal bovine serum (FBS) and maintained in a humidified incubator at 37°C with 5% CO2. For transfection, cells were counted (Countess CounterTM; Life Technologies) and plated at a density of 20 000 cells per well in 96‐well plates. The cells were transiently transfected 48 hours prior to assaying using polyethylenimine (PEI), as described previously. ^28 , ^29 In all experiments a total of 0.25 μg DNA was transfected per well. In the majority of experiments 0.25 μg DNA of receptor‐containing plasmid or the pcDNA3.1 plasmid without an insert was used. For experiments involving RAMPs, 0.125 μg of receptor DNA and 0.125 μg of RAMP‐containing plasmid DNA were transfected to give a 1:1 ratio of receptor to RAMP. Where the RAMP or receptor were transfected alone, the ratio of DNA was made up with the pcDNA3.1 plasmid.\nThe IP‐one Gq assay kit (Cisbio) was used to quantify accumulated myo‐inositol‐1‐phosphate (IP1), a by‐product of IP3 produced after receptor‐mediated Gαq activation in Cos7 and HEK‐293S cells. Briefly, culture media was removed and replaced with DMEM containing 0.1% BSA for 30 minutes at 37°C. Cells were then incubated with media containing 50 mmol/L lithium chloride (LiCl) for an additional 0‐120 minutes (time courses) or 90 minutes at 37°C in the presence or absence of an antagonist. Agonist concentrations of 1 pmol/L to 10 µmol/L were used for agonist only assays or 10 pmol/L to 10 µmol/L concentrations for antagonist experiments. After cell stimulation, 14 µL of stimulation buffer was added to each well. Three microlitres of each detection antibody were added in turn to the plate and incubated at room temperature for 1 hour. Fifteen microliters of sample was then transferred to a 384‐well optiplate and read by an Envision plate reader (PerkinElmer). IP1 concentrations were calculated from a standard curve generated in duplicate.\nIn all experiments the position of peptides and antagonists (pharmacology) or transfected receptors (ELISAs) on assay plates was randomized during each independent experiment, which are independent biological replicates. In all cases, duplicate, triplicate, or quadruplicate technical replicates were conducted for each independent experiment. For transfected cell experiments, each independent experiment involved plating cells from a distinct passage, separate transient transfection and separate signaling or ELISA assays, constituting experimental n. […]"}, "CRF2 receptor (hCRF2α)": {"molecular_target": "T2, CRF2 receptor (hCRF2α) (Homo sapiens, UniProt Q13324)", "T2 construct": "host or cells: Cos7 cells, transient transfection (PEI), pcDNA3.0/3.1 vector", "T2 sequence (Q13324 1-411)": "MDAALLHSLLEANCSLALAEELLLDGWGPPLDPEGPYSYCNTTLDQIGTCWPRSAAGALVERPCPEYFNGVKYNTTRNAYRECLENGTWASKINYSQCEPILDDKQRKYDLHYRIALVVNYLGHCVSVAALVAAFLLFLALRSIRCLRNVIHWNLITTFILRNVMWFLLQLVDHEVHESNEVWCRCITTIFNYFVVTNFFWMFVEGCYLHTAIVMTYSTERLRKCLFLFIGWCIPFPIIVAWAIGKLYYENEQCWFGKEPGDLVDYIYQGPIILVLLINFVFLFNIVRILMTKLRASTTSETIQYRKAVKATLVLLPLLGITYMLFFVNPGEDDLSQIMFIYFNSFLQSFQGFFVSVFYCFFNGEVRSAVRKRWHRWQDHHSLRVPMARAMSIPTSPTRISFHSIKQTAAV", "test": "Antagonism of agonist-mediated IP1 accumulation in Cos7 cells expressing CRF2 receptors", "source_text": "as §1\nCos7, HEK‐293S, and HEK‐293T cells were cultured as described previously. ^28 , ^29 Cos7 cells were originally supplied by the ATCC to Associate Professor Nigel Birch (University of Auckland). HEK‐293S cells were a gift from Professor David Poyner (Aston University) and HEK‐293T cells a gift from Professor John Taylor (University of Auckland). Briefly, all cell lines were cultured in Dulbecco's Modified Eagle Medium (DMEM) supplemented with 8% heat inactivated fetal bovine serum (FBS) and maintained in a humidified incubator at 37°C with 5% CO2. For transfection, cells were counted (Countess CounterTM; Life Technologies) and plated at a density of 20 000 cells per well in 96‐well plates. […]\n(§2) The IP‐one Gq assay kit (Cisbio) was used to quantify accumulated myo‐inositol‐1‐phosphate (IP1), a by‐product of IP3 produced after receptor‐mediated Gαq activation in Cos7 and HEK‐293S cells. […] Fifteen microliters of sample was then transferred to a 384‐well optiplate and read by an Envision plate reader (PerkinElmer). IP1 concentrations were calculated from a standard curve generated in duplicate. […]"}, "calcitonin receptor": {"tested_on": "calcitonin receptor", "test": "Antagonism of calcitonin-mediated IP1 accumulation in Cos7 cells expressing the human calcitonin receptor", "settings": "100 µmol/L; n = 3", "source_text": "as §1, with “N‐terminal FLAG‐tagged human RAMP2 was used as described previously. ^28 All receptors and RAMPs were cloned in pcDNA3.0 or pcDNA3.1 plasmid vectors. All plasmid inserts were sequenced at the Centre for Genomics, Proteomics and Metabolomics (University of Auckland) and the sequences were verified prior to use.” left out\nCos7, HEK‐293S, and HEK‐293T cells were cultured as described previously. ^28 , ^29 Cos7 cells were originally supplied by the ATCC to Associate Professor Nigel Birch (University of Auckland). […] For transfection, cells were counted (Countess CounterTM; Life Technologies) and plated at a density of 20 000 cells per well in 96‐well plates. […]\nas §2"}},
  "note": "Entries after “also recorded” stand apart in the source; their conditions may differ.",
  "data": [
    {"smiles": "CCC(CC)Nc1cc(C)nc(Oc2c(C)cc(C)cc2C)c1C", "note": "[CP‐376,395]", "values": [
      {"measurement": "partial agonism / intrinsic activity", "setting": "CRF1 receptor (hCRF1α) [1]", "result": "No intrinsic activity; also recorded: no evidence of partial agonism"},
      {"measurement": "effect of pre‐incubation on antagonism", "setting": "CRF1 receptor (hCRF1α) [1]; 75 minute pre‐incubation, preliminary cAMP antagonism experiment", "result": "did not increase antagonism or result in a reduction of E max"},
      {"measurement": "effect on agonist E max", "setting": "CRF1 receptor (hCRF1α) [1]; CRF and UCN1‐mediated cAMP, CRF1 receptor, F tests", "result": "no significant difference in E max values"},
      {"measurement": "allosteric effect α", "setting": "CRF1 receptor (hCRF1α) [1]; agonist CRF, cAMP", "result": 0.005},
      {"measurement": "effect on agonist efficacy β", "setting": "CRF1 receptor (hCRF1α) [1]; agonist CRF, cAMP", "result": 0.63},
      {"measurement": "antagonist potency (pKB)", "setting": "CRF1 receptor (hCRF1α) [1]; agonist CRF, cAMP, n = 5", "result": "6.90 ± 0.20"},
      {"measurement": "allosteric effect α", "setting": "CRF1 receptor (hCRF1α) [1]; agonist UCN1, cAMP", "result": 0.03},
      {"measurement": "effect on agonist efficacy β", "setting": "CRF1 receptor (hCRF1α) [1]; agonist UCN1, cAMP", "result": 0.63},
      {"measurement": "antagonist potency (pKB)", "setting": "CRF1 receptor (hCRF1α) [1]; agonist UCN1, cAMP, n = 5 (CP‐376,395), n = 3 (astressin2B)", "result": "5.32 ± 0.14"},
      {"measurement": "potency at CRF1 receptor compared to CRF2 receptor", "setting": "CRF1 receptor (hCRF1α) [1]; antagonism of CRF‐induced cAMP signaling", "result": "at least 800 fold"},
      {"measurement": "potency at CRF1 receptor compared to CRF2 receptor", "setting": "CRF1 receptor (hCRF1α) [1]; antagonism of UCN1‐induced cAMP signaling", "result": "≥ 20", "unit": "fold"},
      {"measurement": "mode of antagonism", "setting": "CRF1 receptor (hCRF1α) [1]; cAMP accumulation", "result": "competitive antagonist of cAMP accumulation"},
      {"measurement": "potency against CRF‐mediated relative to UCN1‐mediated IP1 accumulation", "setting": "CRF1 receptor (hCRF1α) [2]; CRF1 receptor", "result": "approximately 8 fold"},
      {"measurement": "mode of antagonism", "setting": "CRF1 receptor (hCRF1α) [2]; IP1 accumulation", "result": "non‐competitive antagonist of IP1 accumulation"},
      {"measurement": "effect on agonist efficacy β", "setting": "CRF1 receptor (hCRF1α) [2]; agonist CRF, IP1, CRF1", "result": "~ 0"},
      {"measurement": "allosteric effect α", "setting": "CRF1 receptor (hCRF1α) [2]; agonist CRF, IP1, CRF1", "result": 0.03},
      {"measurement": "antagonist potency (pKB)", "setting": "CRF1 receptor (hCRF1α) [2]; agonist CRF, IP1, hCRF1α", "result": "7.55 ± 0.10"},
      {"measurement": "effect on agonist efficacy β", "setting": "CRF1 receptor (hCRF1α) [2]; agonist UCN1, IP1, CRF1", "result": "~ 0"},
      {"measurement": "allosteric effect α", "setting": "CRF1 receptor (hCRF1α) [2]; agonist UCN1, IP1, CRF1", "result": 0.15},
      {"measurement": "antagonist potency (pKB)", "setting": "CRF1 receptor (hCRF1α) [2]; agonist UCN1, IP1, hCRF1α", "result": "6.67 ± 0.08"},
      {"measurement": "effect on agonist E max", "setting": "CRF1 receptor (hCRF1α) [2]; antagonism of CRF and UCN1‐mediated IP1, CRF1 receptor, F tests", "result": "a reduction in E max"},
      {"measurement": "effect on CRF‐mediated IP1 accumulation", "setting": "CRF2 receptor (hCRF2α); 100 µmol/L, CRF2 receptor", "result": "appeared to be abolished"},
      {"measurement": "effect on agonist E max", "setting": "CRF2 receptor (hCRF2α); IP1, CRF2 receptor, F tests", "result": "a reduction in E max"},
      {"measurement": "antagonist potency (pKB)", "setting": "CRF2 receptor (hCRF2α); agonist UCN1, IP1, hCRF2α, Gaddum method for insurmountable antagonism, mean ± SEM, n = 6", "result": "3.40 ± 0.29"},
      {"measurement": "effect on IP1 accumulation at the calcitonin receptor", "setting": "calcitonin receptor", "result": "no effect on IP1 accumulation at the calcitonin receptor"}
    ]}
  ]
}
